# Test results from US20250051727A1, “CARDIAC ORGANOID WITH INNER PART HAVING CAVITIES AND MULTIPLE LAYERS” (MEDIZINISCHE HOCHSCHULE HANNOVER, priority 2018, published 2025).
# Test system: cardiac organoids (from hESC3 NKX2.5-eGFP)
# Type: cell-based, human
# Method: The process was performed for steps a) to n) as described with reference to FIG. 1. Incubation under cell culture conditions was in a 5% CO2 atmosphere at 37° C., using ultra-low attachment 96 well microtiter plates, Nunclon Sphera 96U-well plate available from Thermo Fisher Scientific, as the first vessels. The PSC were the human embryonic stem cell line hESC3 NKX2.5-eGFP. These exemplary PSC were genetically manipulated to express enhanced green fluorescent protein (eGFP) as a reporter under the control of the early cardiomyocyte-specific marker NKX2.5 to indicate early cardiomyocyte differentiation.
# These PSC were cultivated on cell culture flasks (preferably Geltrex-coated) in E8 medium and detached from the flasks to provide the PSC in suspension. In step a), 5000 PSC suspended in 100 μL of the first medium, which was E8 medium (DMEM/F12, L-ascorbic acid-2-phosphate magnesium (64 mg/L), sodium selenium (14 μg/L), FGF2 (100 μg/L), insulin (19.4 mg/L), NaHCO3 (543 mg/L) and transferrin (10.7 mg/L), TGFβ1 (2 μg/L) or NODAL (100 μg/L), osmolarity adjusted to 340 mOsm at pH7.4) supplemented with 10 μM ROCK inhibitor (Y-27632, catalogue No. 72302, Stemcell Technologies)), were carefully dispensed into wells of the microtiter plate. Centrifugation of step b) was twice for 3 min at 300× g with the centrifuge cooled to 4° C. The centrifuged first vessels each contained one agglomerate on the U-shaped bottom and were carefully placed into a cell culture incubator in order to avoid disturbance of the cells localized at the U-shaped bottom. Incubation of step c) without agitation was for 24 h, resulting in the formation of an aggregate of the cells. For embedding in Matrigel (thawed on ice, 9.7 to 10.1 mg/mL protein content) as the exemplary hydrogel, 20 μL Matrigel were positioned in each well of a microtiter plate, the wells of which forming second vessels, which plate was of the same ultra-low attachment quality as the first. […]
compound,measurement,setting,value
O=C1CCC(N2C(=O)c3ccccc3C2=O)C(=O)N1 (stereo not drawn) [Thalidomide],"thickness of the myocardial ring compared to Controls (micrographs, FIG. 15)",,substantially thinner than in Controls
same,"NKX2.5-eGFP-positive cells on the outer layer (micrographs, FIG. 15)","human, 80 μg/mL",absence of any NKX2.5-eGFP-positive cells on the outer layer
same,average diameter of the myocardial ring,"human, 80 μg/mL",165 μm
